US8486935B2, “Xinafoate salt of N4-(2,2-difluoro-4H-benzo[1,4]oxazin-3-one)-6-yl]-5-fluoro-N2-[3-(methylaminocarbonylmethyleneoxy)phenyl]2,4-pyrimidinediamine” (Rigel Pharmaceuticals, Inc., priority 2007, dated 2013)
Structures can show the parent of a compound that is named as a salt.

Columns and labels:
Assay type in all cases: physicochemical
[1] = Solvation/hydration by thermogravimetric analysis (TGA); details: for hydration or solvation: TGA, ambient to 300° C.
Experimental: Solvation/Hydration was assessed by thermogravimetric analysis (TGA) using a TA Instruments Hi-Res TGA 2950 instrument measuring the weight loss of a 8.8 mg sample in an open platinum pan. The sample was heated at 20° C./min from ambient to 300° C. utilizing a nitrogen furnace purge gas.

[2] = Solid form after micronisation using jet milling; details: following micronisation using jet milling
[3] = Solid state stability and excipient compatibility of the lactose monohydrate blend; details: for % main band remaining versus control: micronised, 1:100 blend with lactose monohydrate, control 5° C./0% humidity
Experimental: In order to test for solid state stability and excipient compatibility, a sample of the xinafoate salt was micronised by jet milling (particle size: D10=0.24 μm, D50=1.15 μm, D90=4.29 μm) and the resulting powder was blended at a 1:100 weight ratio with lactose monohydrate (Respitose grade SV008). Samples were stored for 12 weeks at 25° C./60% relative humidity and 40° C./75% relative humidity and assayed for remaining drug content and impurities at 4, 8 and 12 weeks. A control sample was stored at 5° C./0% humidity.

[4] = Hygroscopicity by dynamic vapour sorption
Experimental: Hygroscopicity was assessed using dynamic vapour sorption equipment (Surface Measurement Systems Ltd, model DVS-1). The analysis was conducted at 30° C. with a nitrogen gas flow of 200 cc/min. Water sorption and desorption were determined in the range 0 to 90% relative humidity (RH) using 15% RH intervals. Exposure was for a minimum of 2 hours at each humidity or until the rate of weight change was less than 0.0003%/minute (averaged over 10 minutes). Sample weight was 12.6 mg. The sample was weighed using a CAHN D-200, seven place digital recording balance, which is an integral part of the equipment.

[5] = lactose blend, up to 12 weeks at 25° C./60% RH and 40° C./75% RH

Compound	hydration or solvation [1]	change in degree of crystallinity [2]	change in solid form [2]	% main band remaining versus control ([3]; 25° C./60% RH, 4 weeks)	% main band remaining versus control ([3]; 25° C./60% RH, 8 weeks)	% main band remaining versus control ([3]; 25° C./60% RH, 12 weeks)	% main band remaining versus control ([3]; 40° C./75% RH, 4 weeks)	% main band remaining versus control ([3]; 40° C./75% RH, 8 weeks)	% main band remaining versus control ([3]; 40° C./75% RH, 12 weeks)	change in physical form during storage [3, 5]	degradation during storage [3, 5]	hygroscopicity ([4]; 0 to 90% RH, 30° C.)	water sorption ([4]; 90% RH, 30° C., before micronisation)	water sorption ([4]; 90% relative humidity, following micronisation using jet milling)	solvate formation ([1]; nine solvents tested)
CNC(=O)COc1cccc(Nc2ncc(F)c(Nc3ccc4c(c3)NC(=O)C(F)(F)O4)n2)c1 [xinafoate salt, xinafoate salt of N4-[(2,2-difluoro-4H-benzo[1,4]oxazin-3-one)-6-yl]-5-fluoro-N2-[3-(methylaminocarbonylmethyleneoxy)phenyl]-2,4-pyrimidinediamine]	does not show any hydration or salvation	negligible decrease in the degree of crystallinity	no change in solid form	100.2%	99.9%	100.1%	100.4%	100.0%	100.0%	no change in physical form was detected	no significant degradation was observed	essentially non-hygroscopic	0.6%	0.9%	–
CNC(=O)COc1cccc(Nc2ncc(F)c(Nc3ccc4c(c3)NC(=O)C(F)(F)O4)n2)c1 [free base, N4-[(2,2-difluoro-4H-benzo[1,4]oxazin-3-one)-6-yl]-5-fluoro-N2-[3-(methylaminocarbonylmethyleneoxy)phenyl]-2,4-pyrimidinediamine]	hydrates to form a hemihydrate	–	–	–	–	–	–	–	–	–	–	–	–	–	formed a different solvated form in each of nine solvents tested
